Consider one compound from patent US12103916B2, “Antifungal compounds” (University of Kentucky Research Foundation, priority 2016, dated 2024).

Marks after values point to notes of the source that are not given here.

In assay [1] the test system is C. albicans ATCC 10231 (strain A). Briefly: Time-kill assay, strain A. The class given is cell-based, Candida albicans. The following applies: Ex.2 series, compound at 4×MIC, VOR control.
The subject of assay [2] is C. albicans ATCC MYA-1237(R). The settings on record: Table 1; strain F; control azoles; previously reported (refs 5, 16); cited from earlier work.
The next assay deals with C. albicans ATCC 64124. The settings on record: Table 1; strain B; control azoles; previously reported (refs 5, 16); cited from earlier work.

As to `C[C@@H](c1ncncc1F)[C@](O)(Cn1cncn1)c1ccc(F)cc1F` [VOR, voriconazole], the “effect in time-kill assay” value in assay [1] is reported as “fungistatic”. In addition, the “MIC (MIC-2)” value is listed as 7.8^c μg/mL in assay [2] and 3.9^c μg/mL in the assay on C. albicans ATCC 64124.
